Laboratory results reported in patent US9512107B2, “Therapeutically active compositions and their methods of use” (Agios Pharmaceuticals, Inc., priority 2012, dated 2016).
Changes are numbered by the printed parent chain.

Assays:
IDH2 R172K = target: T1, IDH2 R172K (Homo sapiens, UniProt P48735, R172K); experiment: IDH2 R172K enzymatic assay (NADPH cofactor depletion, diaphorase/resazurin readout); assay type: biochemical; settings: read-out: Enz R172K
T1 sequence (P48735 40-452 R172K): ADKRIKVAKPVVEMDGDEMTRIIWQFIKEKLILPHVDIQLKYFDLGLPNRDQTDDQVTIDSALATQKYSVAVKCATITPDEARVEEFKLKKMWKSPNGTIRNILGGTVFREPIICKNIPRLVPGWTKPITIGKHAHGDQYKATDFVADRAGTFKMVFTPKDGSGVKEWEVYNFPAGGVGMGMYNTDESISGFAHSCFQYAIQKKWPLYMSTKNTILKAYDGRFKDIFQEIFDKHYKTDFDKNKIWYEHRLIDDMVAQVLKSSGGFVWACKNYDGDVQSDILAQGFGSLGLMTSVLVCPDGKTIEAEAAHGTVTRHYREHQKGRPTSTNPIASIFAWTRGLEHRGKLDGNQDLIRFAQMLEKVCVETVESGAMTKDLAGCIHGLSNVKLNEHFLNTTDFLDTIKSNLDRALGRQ
Outline: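 Test compounds are incubated with the mutant enzyme for one hour at ambient temperature. A substrate mix of 50 μM NADPH plus 6.3 mM α-KG initiates turnover, which proceeds for one hour. Diaphorase and resazurin then halt the reaction by depleting the cofactor and convert the remaining NADPH into a fluorescent signal.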

IDH2 R140Q = target: T2, IDH2 R140Q (Homo sapiens, UniProt P48735, R140Q); experiment: IDH2 R140Q enzymatic assay (cofactor depletion, similar format); assay type: biochemical; settings: read-out: Enz R140Q
T2 sequence (P48735 40-452 R140Q): T1 sequence (P48735 40-452 R172K) with R101Q, K133R

[1] = test system: U87MG pLVX-IDH2 R140Q-neo cells; experiment: U87MG pLVX-IDH2 R140Q-neo cell based assay, 2-HG in media by LC-MS at 48 hours; settings: Homo sapiens, U-87 MG
Outline: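 U87MG cells stably expressing IDH2 R140Q were seeded overnight, then exposed to compound at 0.2% final DMSO at 37 °C, 5% CO2. 2-HG in the medium was quantified by LC-MS at 48 h. Growth inhibition was read by CellTiter-Glo luminescence at 72 h.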

CC(C)CNc1nc(Nc2ccnc(C(F)(F)F)c2)nc(-c2cccc(N)n2)n1 [Compound 690, 6-(6-aminopyridin-2-yl)-N2-isobutyl-N4-(2-(trifluoromethyl)pyridin-4-yl)-1,3,5-triazine-2,4-diamine]
IC50 (IDH2 R172K): < 100 nM | IC50 (IDH2 R140Q): 100 to 1000 nM | IC50 [1]: < 100 nM

CC(C)(O)CNc1nc(Nc2cc(F)cc(F)c2)nc(-c2cccc(N)n2)n1 [Compound 691, 1-(4-(6-aminopyridin-2-yl)-6-(3,5-difluorophenylamino)-1,3,5-triazin-2-ylamino)-2-methylpropan-2-ol]
IC50 (IDH2 R172K): 100 to 1000 nM | IC50 (IDH2 R140Q): 100 to 1000 nM | IC50 [1]: < 100 nM

CC1(Nc2nc(Nc3ccnc(C(F)(F)F)c3)nc(-c3cccc(N)n3)n2)CC1 [Compound 692, 6-(6-aminopyridin-2-yl)-N2-(1-methylcyclopropyl)-N4-(2-(trifluoromethyl)pyridin-4-yl)-1,3,5-triazine-2,4-diamine]
IC50 (IDH2 R172K): < 100 nM | IC50 (IDH2 R140Q): 100 to 1000 nM | IC50 [1]: < 100 nM

CC1(Nc2nc(Nc3cc(F)cc(F)c3)nc(-c3cccc(N)n3)n2)CC1 [Compound 693, 6-(6-aminopyridin-2-yl)-N2-(3,5-difluorophenyl)-N4-(1-methylcyclopropyl)-1,3,5-triazine-2,4-diamine]
IC50 (IDH2 R172K): < 100 nM | IC50 (IDH2 R140Q): 100 to 1000 nM | IC50 [1]: < 100 nM

CC(Nc1nc(Nc2ccnc(C(F)(F)F)c2)nc(-c2cccc(N)n2)n1)C(F)(F)F (stereo not drawn) [Compound 694, 6-(6-aminopyridin-2-yl)-N2-(2-(trifluoromethyl)pyridin-4-yl)-N4-(1,1,1-trifluoropropan-2-yl)-1,3,5-triazine-2,4-diamine]
IC50 (IDH2 R172K): < 100 nM | IC50 (IDH2 R140Q): 100 to 1000 nM | IC50 [1]: < 100 nM

CC(C)(C)Nc1nc(Nc2ccnc(C(F)(F)F)c2)nc(-c2cccc(N)n2)n1 [Compound 695, 6-(6-aminopyridin-2-yl)-N2-tert-butyl-N4-(2-(trifluoromethyl)pyridin-4-yl)-1,3,5-triazine-2,4-diamine]
IC50 (IDH2 R172K): < 100 nM | IC50 (IDH2 R140Q): 100 to 1000 nM | IC50 [1]: < 100 nM

CC(C)Nc1nc(Nc2ccnc(C(C)(F)F)c2)nc(-c2cccc(N)n2)n1 [Compound 696, 6-(6-aminopyridin-2-yl)-N2-(2-(1,1-difluoroethyl)pyridin-4-yl)-N4-isopropyl-1,3,5-triazine-2,4-diamine]
IC50 (IDH2 R172K): 100 to 1000 nM | IC50 (IDH2 R140Q): 100 to 1000 nM | IC50 [1]: < 100 nM

CC(=O)Nc1cccc(-c2nc(Nc3ccnc(C(F)(F)F)c3)nc(NC(C)C)n2)n1 [Compound 697, N-(6-(4-(isopropylamino)-6-(2-(trifluoromethyl)pyridin-4-ylamino)-1,3,5-triazin-2-yl)pyridin-2-yl)acetamide]
IC50 (IDH2 R172K): 1000 to 10000 nM | IC50 (IDH2 R140Q): 100 to 1000 nM | IC50 [1]: 100 to 1000 nM

CC(C)(C)Nc1nc(Nc2cc(F)cc(F)c2)nc(-c2cccc(N)n2)n1 [Compound 698, 6-(6-aminopyridin-2-yl)-N2-(tert-butyl)-N4-(3,5-difluorophenyl)-1,3,5-triazine-2,4-diamine]
IC50 (IDH2 R172K): < 100 nM | IC50 (IDH2 R140Q): 100 to 1000 nM | IC50 [1]: < 100 nM

Nc1cccc(-c2nc(NCC3CC3)nc(Nc3cc(F)cc(F)c3)n2)n1 [Compound 699, 6-(6-aminopyridin-2-yl)-N2-(cyclopropylmethyl)-N4-(3,5-difluorophenyl)-1,3,5-triazine-2,4-diamine]
IC50 (IDH2 R172K): < 100 nM | IC50 (IDH2 R140Q): 100 to 1000 nM | IC50 [1]: < 100 nM
